Columns and labels:
RSV A2 strain = test: Assessment of RSV induced CPE in HEp2 cells (RSV A2 strain); format: cell-based; settings: human respiratory syncytial virus, HEp2 cells; for IC50: HEp-2, 120 h, 1 MOI, 5 days, read-out: RSV A2 CPE IC50; for inhibition at 0.1 µg/mL / inhibition at 0.01 µg/mL: HEp-2; for inhibition at 0.1 µg/mL: Inhibition (%) at 0.1 μg/mL, read-out: RSV A2 CPE % Inhibition; for inhibition at 0.01 µg/mL: Inhibition (%) at 0.01 μg/mL
In short: (§1)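 HEp2 cells were infected at MOI 1 with RSV A2 or RSV B Washington, with compound added at the same time (0.5% DMSO final). Incubation was 5 days for A2 and 6 days for B, then viability was read by resazurin fluorescence (545/590 nm) after 6 h. IC50, IC75 and IC90 came from concentration-response curves.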

RSV B Washington strain = test: Assessment of RSV induced CPE in HEp2 cells (RSV B Washington strain); format: cell-based; settings: human respiratory syncytial virus, HEp2 cells; for IC50: HEp-2, 144 h, 1 MOI, 6 days, read-out: RSV B CPE IC50; for inhibition at 1 µg/mL: Inhibition (%) at 1 μg/mL, read-out: RSV B CPE % Inhibition
In short: as §1

[1] = Cell viability: resazurin assay; format: cell-based, human; settings: human, HEp2 cells
In short: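 Viability read-out: resazurin fluorescence (ex 545, em 590 nm) after 6 h, following 5-day compound incubation of HEp2 cells (37 °C, 5% CO2, 5% FBS, 0.5% DMSO final). Loss expressed as percentage of vehicle, negative if viability rose; CC50 derived from concentration-response curve where appropriate.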

| Compound | IC50 (RSV A2 strain) | inhibition at 0.1 µg/mL (RSV A2 strain) | IC50 (RSV B Washington strain) | inhibition at 1 µg/mL (RSV B Washington strain; HEp-2) | CC50 at 5 days [1] | inhibition at 0.01 µg/mL (RSV A2 strain) | inhibition at 0.1 µg/mL (RSV B Washington strain; HEp-2, Inhibition (%) at 0.1 μg/mL) |
| --- | --- | --- | --- | --- | --- | --- | --- |
| Cc1cnc(N2CC3(CCOCC3)C2)c(C(=O)Nc2ccc(C(=O)N3CCc4cc(C(=O)Nc5c(C)cccc5Cl)sc4-c4ccccc43)cc2)c1 [Example 56, N-(2-chloro-6-methylphenyl)-6-(4-(5-methyl-2-(7-oxa-2-azaspiro[3.5]nonan-2-yl)nicotinamido)benzoyl)-5,6-dihydro-4H-benzo[b]thieno[2,3-d]azepine-2-carboxamide] | 0.14 nM | 94% | 4.1 nM | 89% | > 13700 nM |  |  |
| Cc1cnc(N2CC3(CCOCC3)C2)c(C(=O)Nc2ccc(C(=O)N3CCc4cc(C(=O)Nc5c(Cl)cccc5Cl)sc4-c4ccccc43)cc2)c1 [Example 57, N-(2,6-dichlorophenyl)-6-(4-(5-methyl-2-(7-oxa-2-aza-spiro[3.5]nonan-2-yl)nicotinamido)benzoyl)-5,6-dihydro-4H-benzo[b]thieno[2,3-d]azepine-2-carboxamide] | 0.13 nM | 91% | 1.4 nM | 74% | > 13300 nM |  |  |
| Cc1cnc(N2CC3(CCOCC3)C2)c(C(=O)Nc2ccc(C(=O)N3CCc4cc(C(=O)Nc5c(C)cccc5CO)sc4-c4ccccc43)cc2)c1 [Example 58, N-(2-(hydroxymethyl)-6-methylphenyl)-6-(4-(5-methyl-2-(7-oxa-2-azaspiro[3.5]nonan-2-yl)nicotinamido)benzoyl)-5,6-dihydro-4H-benzo[b]thieno[2,3-d]azepine-2-carboxamide] | 0.32 nM |  | 8.6 nM | 100% | > 13700 nM | 100% |  |
| Cc1cnc(N2CC3(CCOCC3)C2)c(C(=O)Nc2ccc(C(=O)N3CCc4cc(C(=O)Nc5c(F)cc(F)cc5F)sc4-c4ccccc43)c(F)c2)c1 [Example 59, 6-(2-fluoro-4-(5-methyl-2-(7-oxa-2-azaspiro[3.5]nonan-2-yl)nicotinamido)benzoyl)-N-(2,4,6-trifluorophenyl)-5,6-di-hydro-4H-benzo[b]thieno[2,3-d]azepine-2-carboxamide] | 0.23 nM | 100% | 13.8 nM | 93% | > 13200 nM |  |  |
| CCc1cnc(N2CC3(CCOCC3)C2)c(C(=O)Nc2ccc(C(=O)N3CCc4cc(C(=O)Nc5c(C)cccc5F)sc4-c4ccccc43)cc2)c1 [Example 60, 6-(4-(5-ethyl-2-(7-oxa-2-azaspiro[3.5]nonan-2-yl)nicotinamido)benzoyl)-N-(2-fluoro-6-methylphenyl)-5,6-dihydro-4H-benzo[b]thieno[2,3-d]azepine-2-carboxamide] | 0.14 nM | 92% | 9.5 nM | 100% | > 13700 nM |  |  |
| CCc1cnc(N2CC3(CCOCC3)C2)c(C(=O)Nc2ccc(C(=O)N3CCc4cc(C(=O)Nc5c(F)cccc5Cl)sc4-c4ccccc43)cc2)c1 [Example 61, N-(2-chloro-6-fluorophenyl)-6-(4-(5-ethyl-2-(7-oxa-2-azaspiro[3.5]nonan-2-yl)nicotinamido)benzoyl)-5,6-dihydro-4H-benzo[b]thieno[2,3-d]azepine-2-carboxamide] | 0.13 nM | 97% | 4.1 nM | 100% | > 13300 nM |  |  |
| Cc1cnc(N2CC3(CCOCC3)C2)c(C(=O)Nc2ccc(C(=O)N3CCc4cc(C(=O)Nc5c(C)cccc5C#N)sc4-c4ccccc43)cc2)c1 [Example 62, N-(2-cyano-6-methylphenyl)-6-(4-(5-methyl-2-(7-oxa-2-azaspiro[3.5]nonan-2-yl)nicotinamido)benzoyl)-5,6-dihydro-4H-benzo[b]thieno[2,3-d]azepine-2-carboxamide] | 0.13 nM |  | 0.9 nM | 100% | > 13800 nM | 89% |  |
| Cc1cnc(N2CC3(CCOCC3)C2)c(C(=O)Nc2ccc(C(=O)N3CCc4cc(C(=O)Nc5c(F)cccc5C(F)(F)F)sc4-c4ccccc43)cc2)c1 [Example 63, N-(2-fluoro-6-(trifluoromethyl)phenyl)-6-(4-(5-methyl-2-(7-oxa-2-azaspiro[3.5]nonan-2-yl)nicotinamido)benzoyl)-5,6-dihydro-4H-benzo[b]thieno[2,3-d]azepine-2-carboxamide] | 0.058 nM |  | 1.6 nM | 100% | > 13000 nM | 95% |  |
| Cc1cnc(N2CC3(CCOCC3)C2)c(C(=O)Nc2ccc(C(=O)N3CCc4cc(C(=O)Nc5c(C)cccc5C)sc4-c4ccccc43)cc2)c1 [Example 64, N-(2,6-dimethylphenyl)-6-(4-(5-methyl-2-(7-oxa-2-aza-spiro[3.5]nonan-2-yl)nicotinamido)benzoyl)-5,6-dihydro-4H-benzo[b]thieno[2,3-d]azepine-2-carboxamide] | 0.25 nM |  | 1.1 nM | 100% | > 14000 nM | 100% |  |
| C#Cc1cnc(N2CC3(CCOCC3)C2)c(C(=O)Nc2ccc(C(=O)N3CCc4cc(C(=O)Nc5c(F)cccc5Cl)sc4-c4ccccc43)cc2)c1 [Example 66, N-(2-chloro-6-fluorophenyl)-6-(4-(5-ethynyl-2-(7-oxa-2-azaspiro[3.5]nonan-2-yl)nicotinamido)benzoyl)-5,6-dihydro-4H-benzo[b]thieno[2,3-d]azepine-2-carboxamide] | 0.15 nM |  | 4.8 nM | 95% | > 13400 nM | 95% |  |
| COCc1cnc(N2CC3(CCOCC3)C2)c(C(=O)Nc2ccc(C(=O)N3CCc4cc(C(=O)Nc5c(F)cccc5Cl)sc4-c4ccccc43)cc2)c1 [Example 67, N-(2-chloro-6-fluorophenyl)-6-(4-(5-(methoxymethyl)-2-(7-oxa-2-azaspiro[3.5]nonan-2-yl)nicotinamido)benzoyl)-5,6-dihydro-4H-benzo[b]thieno[2,3-d]azepine-2-carboxamide] | 0.17 nM |  | 6.5 nM | 100% | > 13100 nM | 100% |  |
| Cc1cccc(F)c1NC(=O)c1cc2c(s1)-c1ccccc1N(C(=O)c1ccc(NC(=O)c3cc(F)cnc3N3CC4(CCOCC4)C3)cc1)CC2 [Example 68, 6-(4-(5-fluoro-2-(7-oxa-2-azaspiro[3.5]nonan-2-yl)nicotinamido)benzoyl)-N-(2-fluoro-6-methylphenyl)-5,6-dihydro-4H-benzo[b]thieno[2,3-d]azepine-2-carboxamide] | 0.087 nM |  | 17.1 nM | 100% | > 13900 nM | 90% |  |
| Cc1cccc(F)c1NC(=O)c1cc2c(s1)-c1ccccc1N(C(=O)c1ccc(NC(=O)c3cc(Cl)cnc3N3CC4(CCOCC4)C3)cc1)CC2 [Example 69, 6-(4-(5-chloro-2-(7-oxa-2-azaspiro[3.5]nonan-2-yl)nicotinamido)benzoyl)-N-(2-fluoro-6-methylphenyl)-5,6-dihydro-4H-benzo[b]thieno[2,3-d]azepine-2-carboxamide] | 0.45 nM |  | 15.3 nM | 100% | > 13600 nM | 96% |  |
| [2H]c1c([2H])c(C(=O)N2CCc3cc(C(=O)Nc4c(C)cccc4F)sc3-c3ccccc32)c([2H])c([2H])c1NC(=O)c1cc(C)cnc1N1CC2(CCOCC2)C1 [Example 70] | 0.18 nM |  | 1.2 nM | 100% | > 13900 nM | 76% |  |
| COc1cnc(N2CC3(CCOCC3)C2)c(C(=O)Nc2ccc(C(=O)N3CCc4cc(C(=O)Nc5c(C)cccc5F)sc4-c4ccccc43)cc2)c1 [Example 71, N-(2-fluoro-6-methylphenyl)-6-(4-(5-methoxy-2-(7-oxa-2-azaspiro[3.5]nonan-2-yl)nicotinamido)benzoyl)-5,6-di-hydro-4H-benzo[b]thieno[2,3-d]azepine-2-carboxamide] | 0.61 nM |  | 15.5 nM |  | > 13700 nM | 100% | 100% |
| O=C(Nc1c(F)cccc1F)c1cc2c(s1)-c1ccccc1N(C(=O)c1ccc(NC(=O)c3cc(C4CC4)cnc3N3CC4(CCOCC4)C3)cc1)CC2 [Example 72, 6-(4-(5-cyclopropyl-2-(7-oxa-2-azaspiro[3.5]nonan-2-yl)nicotinamido)benzoyl)-N-(2,6-difluorophenyl)-5,6-dihydro-4H-benzo[b]thieno[2,3-d]azepine-2-carboxamide] | 0.32 nM |  | 3.3 nM | 89% | > 13400 nM | 100% |  |
| C=C(C)c1cnc(N2CC3(CCOCC3)C2)c(C(=O)Nc2ccc(C(=O)N3CCc4cc(C(=O)Nc5c(F)cccc5F)sc4-c4ccccc43)cc2)c1 [Example 73, N-(2,6-difluorophenyl)-6-(4-(5-(prop-1-en-2-yl)-2-(7-oxa-2-azaspiro[3.5]nonan-2-yl)nicotinamido)benzoyl)-5,6-dihydro-4H-benzo[b]thieno[2,3-d]azepine-2-carboxamide] | 2.6 nM |  | 14.8 nM | 98% | > 13400 nM | 84% |  |

— patent US10189863B2, “5,6-dihydro-4H-benzo[b]thieno-[2,3-d]azepine derivatives” (PULMOCIDE LIMITED, priority 2014, dated 2019)
